In the NIST ThermoML archive (doi:10.1021/je200721d):
Numbers after ± are expanded uncertainties.

Experiment: xn = mol fraction of the nth substance listed
Conditions: Liquid, Vibrating tube method

`CCCCCCCCCC` [decane] + CCCCCC showed a mass density (313.08 K, 1000 kPa, x2 = 0.8991) of 654.3 ± 0.27 kg/m3, a mass density (313.08 K, 2000 kPa, x2 = 0.8991) of 655.28 ± 0.28 kg/m3 and a mass density (313.08 K, 3000 kPa, x2 = 0.8991) of 656.28 ± 0.29 kg/m3. It also gave a mass density (313.08 K, 4000 kPa, x2 = 0.8991) of 657.3 ± 0.3 kg/m3, a mass density (313.08 K, 5000 kPa, x2 = 0.8991) of 658.33 ± 0.31 kg/m3 and a mass density (313.08 K, 6000 kPa, x2 = 0.8991) of 659.37 ± 0.31 kg/m3. The mass density (313.08 K, 7000 kPa, x2 = 0.8991) was 660.42 ± 0.32 kg/m3, the mass density (313.08 K, 8000 kPa, x2 = 0.8991) was 661.47 ± 0.33 kg/m3 and the mass density (313.08 K, 9000 kPa, x2 = 0.8991) was 662.52 ± 0.34 kg/m3. For the same compound, the mass density (313.08 K, 10000 kPa, x2 = 0.8991) was 663.56 ± 0.35 kg/m3, the mass density (313.08 K, 11000 kPa, x2 = 0.8991) was 664.61 ± 0.36 kg/m3 and the mass density (313.08 K, 12000 kPa, x2 = 0.8991) was 665.63 ± 0.37 kg/m3. For the same compound, the mass density (313.08 K, 13000 kPa, x2 = 0.8991) was 666.66 ± 0.38 kg/m3, the mass density (313.08 K, 14000 kPa, x2 = 0.8991) was 667.66 ± 0.39 kg/m3 and the mass density (313.08 K, 15000 kPa, x2 = 0.8991) was 668.63 ± 0.4 kg/m3. It also gave a mass density (313.08 K, 16000 kPa, x2 = 0.8991) of 669.61 ± 0.41 kg/m3, a mass density (313.08 K, 17000 kPa, x2 = 0.8991) of 670.54 ± 0.41 kg/m3 and a mass density (313.08 K, 18000 kPa, x2 = 0.8991) of 671.45 ± 0.42 kg/m3. The mass density (313.08 K, 19000 kPa, x2 = 0.8991) was 672.34 ± 0.43 kg/m3, the mass density (313.08 K, 20000 kPa, x2 = 0.8991) was 673.21 ± 0.44 kg/m3 and the mass density (313.08 K, 21000 kPa, x2 = 0.8991) was 674.04 ± 0.45 kg/m3. For the same compound, the mass density (313.08 K, 22000 kPa, x2 = 0.8991) was 674.91 ± 0.46 kg/m3, the mass density (313.08 K, 23000 kPa, x2 = 0.8991) was 675.69 ± 0.47 kg/m3 and the mass density (313.08 K, 24000 kPa, x2 = 0.8991) was 676.48 ± 0.48 kg/m3. The mass density (313.08 K, 25000 kPa, x2 = 0.8991) was 677.31 ± 0.49 kg/m3, the mass density (313.17 K, 1000 kPa, x2 = 0.2185) was 704.92 ± 0.26 kg/m3 and the mass density (313.17 K, 2000 kPa, x2 = 0.2185) was 705.74 ± 0.26 kg/m3. It also gave a mass density (313.17 K, 3000 kPa, x2 = 0.2185) of 706.66 ± 0.27 kg/m3, a mass density (313.17 K, 4000 kPa, x2 = 0.2185) of 707.53 ± 0.27 kg/m3 and a mass density (313.17 K, 5000 kPa, x2 = 0.2185) of 708.39 ± 0.28 kg/m3. It also gave a mass density (313.17 K, 6000 kPa, x2 = 0.2185) of 709.25 ± 0.29 kg/m3, a mass density (313.17 K, 7000 kPa, x2 = 0.2185) of 710.11 ± 0.29 kg/m3 and a mass density (313.17 K, 8000 kPa, x2 = 0.2185) of 710.96 ± 0.3 kg/m3. It also gave a mass density (313.17 K, 9000 kPa, x2 = 0.2185) of 711.8 ± 0.31 kg/m3, a mass density (313.17 K, 10000 kPa, x2 = 0.2185) of 712.63 ± 0.32 kg/m3 and a mass density (313.17 K, 10990 kPa, x2 = 0.2185) of 713.46 ± 0.32 kg/m3. The mass density (313.17 K, 12000 kPa, x2 = 0.2185) was 714.27 ± 0.33 kg/m3, the mass density (313.17 K, 13000 kPa, x2 = 0.2185) was 715.05 ± 0.34 kg/m3 and the mass density (313.17 K, 14000 kPa, x2 = 0.2185) was 715.84 ± 0.35 kg/m3. It also gave a mass density (313.17 K, 15000 kPa, x2 = 0.2185) of 716.63 ± 0.35 kg/m3, a mass density (313.17 K, 16000 kPa, x2 = 0.2185) of 717.4 ± 0.36 kg/m3 and a mass density (313.17 K, 17000 kPa, x2 = 0.2185) of 718.15 ± 0.37 kg/m3. The mass density (313.17 K, 18000 kPa, x2 = 0.2185) was 718.88 ± 0.38 kg/m3, the mass density (313.17 K, 19000 kPa, x2 = 0.2185) was 719.62 ± 0.38 kg/m3 and the mass density (313.17 K, 20000 kPa, x2 = 0.2185) was 720.34 ± 0.39 kg/m3. The mass density (313.17 K, 21000 kPa, x2 = 0.2185) was 721.06 ± 0.4 kg/m3, the mass density (313.17 K, 22000 kPa, x2 = 0.2185) was 721.76 ± 0.41 kg/m3 and the mass density (313.17 K, 23000 kPa, x2 = 0.2185) was 722.46 ± 0.42 kg/m3. It also gave a mass density (313.17 K, 24000 kPa, x2 = 0.2185) of 723.13 ± 0.42 kg/m3, a mass density (313.17 K, 25000 kPa, x2 = 0.2185) of 723.78 ± 0.43 kg/m3 and a mass density (313.18 K, 1000 kPa, x2 = 0.0456) of 713.33 ± 0.25 kg/m3. It also gave a mass density (313.18 K, 1000 kPa, x2 = 0.7524) of 668.32 ± 0.27 kg/m3, a mass density (313.18 K, 2000 kPa, x2 = 0.0456) of 714.22 ± 0.26 kg/m3 and a mass density (313.18 K, 2000 kPa, x2 = 0.7524) of 669.4 ± 0.27 kg/m3. It also gave a mass density (313.18 K, 3000 kPa, x2 = 0.0456) of 715.11 ± 0.26 kg/m3, a mass density (313.18 K, 3000 kPa, x2 = 0.7524) of 670.46 ± 0.28 kg/m3 and a mass density (313.18 K, 4000 kPa, x2 = 0.0456) of 715.98 ± 0.27 kg/m3. It also gave a mass density (313.18 K, 4000 kPa, x2 = 0.7524) of 671.5 ± 0.29 kg/m3, a mass density (313.18 K, 5000 kPa, x2 = 0.0456) of 716.84 ± 0.28 kg/m3 and a mass density (313.18 K, 5000 kPa, x2 = 0.7524) of 672.55 ± 0.3 kg/m3. For the same compound, the mass density (313.18 K, 6000 kPa, x2 = 0.0456) was 717.69 ± 0.28 kg/m3, the mass density (313.18 K, 6000 kPa, x2 = 0.7524) was 673.61 ± 0.31 kg/m3 and the mass density (313.18 K, 7000 kPa, x2 = 0.0456) was 718.53 ± 0.29 kg/m3. For the same compound, the mass density (313.18 K, 7000 kPa, x2 = 0.7524) was 674.58 ± 0.31 kg/m3, the mass density (313.18 K, 8000 kPa, x2 = 0.0456) was 719.34 ± 0.3 kg/m3 and the mass density (313.18 K, 8000 kPa, x2 = 0.7524) was 675.56 ± 0.32 kg/m3. The mass density (313.18 K, 9000 kPa, x2 = 0.0456) was 720.15 ± 0.3 kg/m3, the mass density (313.18 K, 9000 kPa, x2 = 0.7524) was 676.55 ± 0.33 kg/m3 and the mass density (313.18 K, 10000 kPa, x2 = 0.0456) was 720.95 ± 0.31 kg/m3. For the same compound, the mass density (313.18 K, 10000 kPa, x2 = 0.7524) was 677.5 ± 0.34 kg/m3, the mass density (313.18 K, 10990 kPa, x2 = 0.0456) was 721.74 ± 0.32 kg/m3 and the mass density (313.18 K, 10990 kPa, x2 = 0.7524) was 678.44 ± 0.35 kg/m3. It also gave a mass density (313.18 K, 12000 kPa, x2 = 0.0456) of 722.51 ± 0.32 kg/m3, a mass density (313.18 K, 12000 kPa, x2 = 0.7524) of 679.36 ± 0.36 kg/m3 and a mass density (313.18 K, 13000 kPa, x2 = 0.0456) of 723.28 ± 0.33 kg/m3. For the same compound, the mass density (313.18 K, 13000 kPa, x2 = 0.7524) was 680.27 ± 0.37 kg/m3, the mass density (313.18 K, 14000 kPa, x2 = 0.0456) was 724.03 ± 0.34 kg/m3 and the mass density (313.18 K, 14000 kPa, x2 = 0.7524) was 681.18 ± 0.38 kg/m3. The mass density (313.18 K, 15000 kPa, x2 = 0.0456) was 724.78 ± 0.35 kg/m3, the mass density (313.18 K, 15000 kPa, x2 = 0.7524) was 682.08 ± 0.38 kg/m3 and the mass density (313.18 K, 16000 kPa, x2 = 0.0456) was 725.51 ± 0.35 kg/m3. The mass density (313.18 K, 16000 kPa, x2 = 0.7524) was 682.96 ± 0.39 kg/m3, the mass density (313.18 K, 17000 kPa, x2 = 0.0456) was 726.24 ± 0.36 kg/m3 and the mass density (313.18 K, 17000 kPa, x2 = 0.7524) was 683.82 ± 0.4 kg/m3. The mass density (313.18 K, 18000 kPa, x2 = 0.0456) was 726.96 ± 0.37 kg/m3, the mass density (313.18 K, 18000 kPa, x2 = 0.7524) was 684.65 ± 0.41 kg/m3 and the mass density (313.18 K, 19000 kPa, x2 = 0.0456) was 727.67 ± 0.38 kg/m3. It also gave a mass density (313.18 K, 19000 kPa, x2 = 0.7524) of 685.47 ± 0.42 kg/m3, a mass density (313.18 K, 20000 kPa, x2 = 0.0456) of 728.36 ± 0.38 kg/m3 and a mass density (313.18 K, 20000 kPa, x2 = 0.7524) of 686.29 ± 0.43 kg/m3. It also gave a mass density (313.18 K, 21000 kPa, x2 = 0.0456) of 729.05 ± 0.39 kg/m3, a mass density (313.18 K, 21000 kPa, x2 = 0.7524) of 687.07 ± 0.44 kg/m3 and a mass density (313.18 K, 22000 kPa, x2 = 0.0456) of 729.74 ± 0.4 kg/m3.
